Article PMC11212140, “Molecular Bidents with Two Electrophilic Warheads as a New Pharmacological Modality” (ACS Central Science, 2024)

Columns and labels:
Experiment in all cases: KiNativ profiling in H3255 cells
Assay type in all cases: cell-based, human
[1] = test system: T1, SLK; settings: 2.5 µM
T1 construct: purchased ActivX Biosciences (KiNativ)
Protocol: (§1) treatment. Cell viability was determined by using CellTiter-Glo (Promega #G7571) according to the manufacturer’s instructions, measuring luminescence using an Envision plate-reader (PerkinElmer Inc.). Dose-response curves were generated using non-linear regression curve fit in GraphPad Prism 9.2.0(GraphPad Software).
(§2) Cellular target engagement assays
(§3) After 6 hours treatment, cells were pelleted, washed with PBS once and lysed with IP lysis buffer (25mMTris-HCl pH 7.4, 150mM NaCl, 1 mM EDTA, 1% NP-40 and 5% glycerol) (Thermo Fisher Scientific, Cat#87788) containing protease/phosphatase inhibitor cocktail (Roche). The protein concentrations were measured by BCA analysis (Pierce). Cell lysates were incubated with 1 μM of biotin conjugated probe (bio-Osimertinib or bio-ZNL-0013) at 4 ℃ overnight, and incubated for 3 more hours at room temperature. Lysates with probe were then incubated with streptavidin beads (Thermo Fisher, #20349) for 2 hours at 4 ℃. The protein-probe complexes on the beads were then subjected to immunoblotting.
(§4) H3255 cells were plated with 6.5x10^6 per condition in fresh media in 15 cm plates and treated the 80% confluency for 2 hours with DMSO or 2.5 μM of ZNL-0056. To harvest cells, plates were washed 3 times with cold PBS, then collected by scraping into 4 mL of cold PBS containing protease and phosphatase inhibitors. Cells were pelleted by centrifugation at 1350 g at 4 ℃ for 5 minutes and immediately frozen in liquid nitrogen. The frozen samples were sent to ActivX Biosciences (La Jolla, CA) for the remainder of the KiNativ profiling experiment4.
(§5) Protein expression and purification
(§6) Human EGFR kinase domain (residues 696-1022) with T790M and V948R mutations was cloned with an N-terminal, protease cleavable His -GST tag. Recombinant protein was expressed in SF9 insect cells using baculovirus generated from the pFastBac system (Thermo Fisher) .
(§7) Briefly, cells at a density of ~2x10^6 cells/mL were infected with 1% (v/v) virus stock and grown for ~72 hours before harvesting and freezing the cell pellet . Infected cells were lysed in buffer A (50 mM Tris pH 8.0, 500 mM NaCl, 5% glycerol, 0.5 mM Tris(2-carboxyethyl)phosphine [TCEP]), ultracentrifuged at >200,000 rcf for 1 h, and the supernatant flo wed through Ni-NTA resin by gravity. The resin was washed with buffer A supplemented with 40 mM imidazole by […]

[2] = test system: JNK1, JNK2, JNK3; settings: 2.5 µM; Lys2; DLKPSNIVVK
Protocol: as §1, §2, §3, §4, §5, §6, §7

[3] = test system: T2, VRK2; settings: 2.5 µM; Lys2; MLDVLEYIHENEYVHGDIKAANLLLGYK
T2 construct: purchased ActivX Biosciences (KiNativ)
Protocol: as §1, §2, §3, §4, §5, §6, §7

[4] = test system: T3, MARK2; settings: 2.5 µM; Lys1; EVAVKIIDKTQLNSSSLQK
T3 construct: purchased ActivX Biosciences (KiNativ)
Protocol: as §1, §2, §3, §4, §5, §6, §7

[5] = test system: T4, YANK3; settings: 2.5 µM; Lys2; DVKPDNILLDER
T4 construct: purchased ActivX Biosciences (KiNativ)
Protocol: as §1, §2, §3, §4, §5, §6, §7

[6] = test system: T5, EphB4; settings: 2.5 µM; Activation Loop; FLEENSSDPTYTSSLGGKIPIR
T5 construct: purchased ActivX Biosciences (KiNativ)
Protocol: as §1, §2, §3, §4, §5, §6, §7

[7] = test system: T6, NDR2; settings: 2.5 µM
T6 construct: purchased ActivX Biosciences (KiNativ)
Protocol: as §1, §2, §3, §4, §5, §6, §7

[8] = test system: T7, RSK1 domain2; settings: 2.5 µM; Lys2; DLKPSNILYVDESGNPECLR
T7 construct: RSK1 domain2; purchased ActivX Biosciences (KiNativ)
Protocol: as §1, §2, §3, §4, §5, §6, §7

[9] = test system: T8, MAP4K3; settings: 2.5 µM
T8 construct: purchased ActivX Biosciences (KiNativ)
Protocol: as §1, §2, §3, §4, §5, §6, §7

[10] = test system: T9, IKKa; settings: 2.5 µM; Lys2; DLKPENIVLQDVGGK
T9 construct: purchased ActivX Biosciences (KiNativ)
Protocol: as §1, §2, §3, §4, §5, §6, §7

[11] = test system: T10, MAP2K7; settings: 2.5 µM; Lys2; DVKPSNILLDER
T10 construct: purchased ActivX Biosciences (KiNativ)
Protocol: as §1, §2, §3, §4, §5, §6, §7

[12] = test system: T11, SYK; settings: 2.5 µM
T11 construct: purchased ActivX Biosciences (KiNativ)
Protocol: as §1, §2, §3, §4, §5, §6, §7

[13] = test system: Wnk1, Wnk2, Wnk4; settings: 2.5 µM; Activation Loop; IGDLGLATLKR
Protocol: as §1, §2, §3, §4, §5, §6, §7

[14] = test system: T12, CDK5; settings: 2.5 µM
T12 construct: purchased ActivX Biosciences (KiNativ)
Protocol: as §1, §2, §3, §4, §5, §6, §7

[15] = test system: T13, PKR; settings: 2.5 µM
T13 construct: purchased ActivX Biosciences (KiNativ)
Protocol: as §1, §2, §3, §4, §5, §6, §7

[16] = test system: T14, CDKL3; settings: 2.5 µM; Lys2; DIKPENILVSQSGITK
T14 construct: purchased ActivX Biosciences (KiNativ)
Protocol: as §1, §2, §3, §4, §5, §6, §7

[17] = test system: T15, PITSLRE; settings: 2.5 µM; Lys2; DLKTSNLLLSHAGILK
T15 construct: purchased ActivX Biosciences (KiNativ)
Protocol: as §1, §2, §3, §4, §5, §6, §7

[18] = test system: T16, ITPK1; settings: 2.5 µM; ATP; NFSAGTSDRESIFFNSHNVSKPESSSVLTELDKIEGVFERPSDEVIR
T16 construct: purchased ActivX Biosciences (KiNativ)
Protocol: as §1, §2, §3, §4, §5, §6, §7

[19] = test system: T17, STLK5; settings: 2.5 µM
T17 construct: purchased ActivX Biosciences (KiNativ)
Protocol: as §1, §2, §3, §4, §5, §6, §7

[20] = test system: T18, TAO2; settings: 2.5 µM; Lys2; DVKAGNILLSEPGLVK
T18 construct: purchased ActivX Biosciences (KiNativ)
Protocol: as §1, §2, §3, §4, §5, §6, §7

[21] = test system: Wnk1, Wnk2; settings: 2.5 µM; ATP Loop; GSFKTVYK
Protocol: as §1, §2, §3, §4, §5, §6, §7

[22] = test system: T19, PLK1; settings: 2.5 µM
T19 construct: purchased ActivX Biosciences (KiNativ)
Protocol: as §1, §2, §3, §4, §5, §6, §7

[23] = test system: T20, BARK1; settings: 2.5 µM; Lys2; DLKPANILLDEHGHVR
T20 construct: purchased ActivX Biosciences (KiNativ)
Protocol: as §1, §2, §3, §4, §5, §6, §7

[24] = Activation Loop, IGDFGLVTSLKNDGKR
[25] = Activation Loop, YSVKVLPWLSPEVLQQNLQGYDAK

`C=CC(=O)Nc1cc(C(=O)Nc2nc3cccc(C)c3n2[C@@H]2CCCCN(C(=O)C=C)C2)cs1` [ZNL-0056] gave an Inhibition ([1]; Lys1, AQNKETSVLAAAKVIDTK) of -4.8%, an Inhibition ([1]; Lys2, DLKAGNILFTLDGDIK) of -22.3% and an Inhibition [2] of -5.1%. The Inhibition [3] was 7.9%, the Inhibition [4] was 25.2% and the Inhibition [5] was -11.7%. The Inhibition [6] was -4.5%, the Inhibition ([7]; Lys1, DTGHIYAMKILR) was 11.0% and the Inhibition ([7]; Lys2, DIKPDNLLLDAK) was 3.3%. For the same molecule, the Inhibition [8] was 11.8%, the Inhibition ([9]; Lys1, NVNTGELAAIKVIK) was 9.4% and the Inhibition ([9]; Lys2, DIKGANILLTDNGHVK) was 21.1%. It also gave an Inhibition [10] of 5.3%, an Inhibition [11] of 90.7% and an Inhibition ([12]; Activation Loop, ISDFGLSKALR) of 4.4%. The Inhibition ([12]; Lys1, TVAVKILK) was 4.7%, the Inhibition [13] was 1.3% and the Inhibition ([14]; Lys1, NRETHEIVALKR) was -65.5%. For the same molecule, the Inhibition ([14]; Lys2, DLKPQNLLINR) was 18.0%, the Inhibition [15, 24] was 11.7% and the Inhibition ([15]; Lys2, DLKPSNIFLVDTK) was 0.451%. It also gave an Inhibition [16] of -6.0%, an Inhibition [17] of 20.7% and an Inhibition [18] of -0.632%. It also gave an Inhibition [19, 25] of -9.2%, an Inhibition ([19]; Lys2, SVKASHILISVDGK) of -41.2% and an Inhibition [20] of -4.5%. For the same molecule, the Inhibition [21] was -0.1%, the Inhibition ([22]; Lys1, CFEISDADTKEVFAGKIVPK) was 11.9% and the Inhibition ([22]; Lys2, DLKLGNLFLNEDLEVK) was -1.2%. The Inhibition [23] was 17.8%.

`C=CC(=O)Nc1cc(Nc2nccc(-c3cn(C)c4ccccc34)n2)c(OC)cc1N(C)CCN(C)C` [Osimertinib, osimertinib, reference compound] gave an Inhibition ([1]; Lys1, AQNKETSVLAAAKVIDTK) of -11.7%, an Inhibition ([1]; Lys2, DLKAGNILFTLDGDIK) of 8.3% and an Inhibition [2] of 13.4%. For the same molecule, the Inhibition [3] was 6.4%, the Inhibition [4] was 7.8% and the Inhibition [5] was 1.4%. It also gave an Inhibition [6] of 19.2%, an Inhibition ([7]; Lys1, DTGHIYAMKILR) of -19.7% and an Inhibition ([7]; Lys2, DIKPDNLLLDAK) of -0.656%. It also gave an Inhibition [8] of -13.9%, an Inhibition ([9]; Lys1, NVNTGELAAIKVIK) of -4.2% and an Inhibition ([9]; Lys2, DIKGANILLTDNGHVK) of 3.2%. The Inhibition [10] was -19.3%, the Inhibition [11] was -1.4% and the Inhibition ([12]; Activation Loop, ISDFGLSKALR) was -19.6%. For the same molecule, the Inhibition ([12]; Lys1, TVAVKILK) was -0.9%, the Inhibition [13] was -32.3% and the Inhibition ([14]; Lys1, NRETHEIVALKR) was -40.7%. For the same molecule, the Inhibition ([14]; Lys2, DLKPQNLLINR) was 26.2%, the Inhibition [15, 24] was -12.9% and the Inhibition ([15]; Lys2, DLKPSNIFLVDTK) was 6.2%. For the same molecule, the Inhibition [16] was 4.6%, the Inhibition [17] was -3.8% and the Inhibition [18] was 22.9%. It also gave an Inhibition [19, 25] of 2.8%, an Inhibition ([19]; Lys2, SVKASHILISVDGK) of 3.2% and an Inhibition [20] of 8.2%. For the same molecule, the Inhibition [21] was -14.8%, the Inhibition ([22]; Lys1, CFEISDADTKEVFAGKIVPK) was 9.6% and the Inhibition ([22]; Lys2, DLKLGNLFLNEDLEVK) was 25.0%. For the same molecule, the Inhibition [23] was -15.7%.
